The values below come from ChEMBL document CHEMBL6109064, “Functional and structural polypharmacology of indazole-based privileged ligands to tackle the undruggability of membrane transporters” (Eur J Med Chem, 2025).

Active and inactive are the calls of the source. No cut-off for these calls is given here.

The IC50 is the concentration needed to halve the response being measured.

What all share (type): cell-based
Test [1] addresses ATP-dependent translocase ABCB1 (Homo sapiens, UniProt P08183). Kind of test: Inhibition of ABCB1 in human A2780 ADR cells assessed as increase in daunorubicin fluorescence intensity using daunorubicin as tracer preincubated for 30 mins followed by daunorubicin addition and measured for 180 mins by flow cytometry.
The target in test [2] is Sodium-dependent serotonin transporter (Homo sapiens) (UniProt P31645). Put plainly: Inhibition of SERT (unknown origin) expressed in HEK293 cells assessed as inhibition of MPP+ transport incubated for 5 mins by tandem mass spectrometry.
The target of test [3] is T1, Solute carrier organic anion transporter family member 1A2 (Homo sapiens, UniProt P46721).
T1 sequence (P46721 whole entry): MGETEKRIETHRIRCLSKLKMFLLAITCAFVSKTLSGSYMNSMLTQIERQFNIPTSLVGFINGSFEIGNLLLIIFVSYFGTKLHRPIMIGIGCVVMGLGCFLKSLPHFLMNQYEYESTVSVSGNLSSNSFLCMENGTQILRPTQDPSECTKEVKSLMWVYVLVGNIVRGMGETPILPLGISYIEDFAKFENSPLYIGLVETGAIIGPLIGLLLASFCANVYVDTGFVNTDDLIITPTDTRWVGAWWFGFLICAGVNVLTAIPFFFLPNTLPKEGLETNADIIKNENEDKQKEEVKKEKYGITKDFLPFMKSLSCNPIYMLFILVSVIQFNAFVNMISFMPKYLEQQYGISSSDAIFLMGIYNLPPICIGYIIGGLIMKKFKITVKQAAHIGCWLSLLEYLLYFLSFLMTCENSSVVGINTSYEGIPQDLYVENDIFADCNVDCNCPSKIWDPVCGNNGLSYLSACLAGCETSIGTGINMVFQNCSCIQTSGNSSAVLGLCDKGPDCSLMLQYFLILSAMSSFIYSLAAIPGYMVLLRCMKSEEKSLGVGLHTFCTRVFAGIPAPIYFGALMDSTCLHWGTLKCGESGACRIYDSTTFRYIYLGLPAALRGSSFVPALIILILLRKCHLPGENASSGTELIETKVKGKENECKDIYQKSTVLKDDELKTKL
Put plainly: Inhibition of OATP1A2 (unknown origin) transfected in human A-431 cells assessed as inhibition of SR101 uptake preincubated for 5 mins followed by SR101 addition and measured after 10 mins by fluorescence based analysis.

Test [4] concerns the target T2, Solute carrier family 22 member 2 (Homo sapiens, UniProt O15244).
T2 sequence (O15244 whole entry): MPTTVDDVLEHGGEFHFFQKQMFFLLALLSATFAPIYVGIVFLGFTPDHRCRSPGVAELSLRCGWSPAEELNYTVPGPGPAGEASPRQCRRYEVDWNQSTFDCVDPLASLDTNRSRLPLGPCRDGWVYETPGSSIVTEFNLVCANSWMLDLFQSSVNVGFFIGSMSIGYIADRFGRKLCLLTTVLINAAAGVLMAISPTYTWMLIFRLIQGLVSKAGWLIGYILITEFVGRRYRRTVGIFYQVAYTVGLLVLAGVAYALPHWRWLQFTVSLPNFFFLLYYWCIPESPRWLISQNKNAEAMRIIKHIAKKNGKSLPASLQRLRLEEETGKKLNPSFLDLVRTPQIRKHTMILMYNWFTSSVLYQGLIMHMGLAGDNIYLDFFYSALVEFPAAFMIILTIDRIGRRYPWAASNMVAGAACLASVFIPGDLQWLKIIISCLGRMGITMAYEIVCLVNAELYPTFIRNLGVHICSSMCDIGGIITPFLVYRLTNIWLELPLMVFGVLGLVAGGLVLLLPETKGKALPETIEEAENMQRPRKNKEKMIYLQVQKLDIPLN
Kind of test: Inhibition of OCT2 (unknown origin) expressed in HEK293 cells assessed as inhibition of ASP+ uptake incubated for 5 mins by fluorescence based analysis.

Test [5] concerns the target T3, Broad substrate specificity ATP-binding cassette transporter ABCG2 (Homo sapiens, UniProt Q9UNQ0).
T3 sequence (Q9UNQ0 whole entry): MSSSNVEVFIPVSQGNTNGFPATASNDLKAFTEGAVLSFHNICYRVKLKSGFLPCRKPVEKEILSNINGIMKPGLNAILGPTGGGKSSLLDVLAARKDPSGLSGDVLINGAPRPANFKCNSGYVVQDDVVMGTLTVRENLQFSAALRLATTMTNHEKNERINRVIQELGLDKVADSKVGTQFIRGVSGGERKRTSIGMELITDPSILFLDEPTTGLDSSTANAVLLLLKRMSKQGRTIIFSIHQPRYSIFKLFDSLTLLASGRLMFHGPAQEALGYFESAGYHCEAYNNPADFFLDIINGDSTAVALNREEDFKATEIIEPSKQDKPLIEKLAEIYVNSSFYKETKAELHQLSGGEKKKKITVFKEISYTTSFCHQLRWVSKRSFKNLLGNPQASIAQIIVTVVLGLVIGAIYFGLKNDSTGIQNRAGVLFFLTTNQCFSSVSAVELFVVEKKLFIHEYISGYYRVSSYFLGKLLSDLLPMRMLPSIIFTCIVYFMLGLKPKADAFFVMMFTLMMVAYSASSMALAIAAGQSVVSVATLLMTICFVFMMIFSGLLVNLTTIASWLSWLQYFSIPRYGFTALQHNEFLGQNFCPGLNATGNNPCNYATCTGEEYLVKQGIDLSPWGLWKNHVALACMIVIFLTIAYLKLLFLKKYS
Kind of test: Inhibition of ABCG2 (unknown origin) expressed in dog MDCK-II-BCRP cells assessed as increase in Hoechst 33342 fluorescence intensity using Hoechst 33342 as tracer preincubated for 30 mins followed by Hoechst 33342 addition and measured after 120 mins by fluorescence based analysis.

Test [6] addresses Multidrug resistance-associated protein 1 (Homo sapiens, UniProt P33527). Put plainly: Inhibition of ABCC1 in human NCI-H69AR cells assessed as increase in daunorubicin fluorescence intensity using daunorubicin as tracer preincubated for 30 mins followed by daunorubicin addition and measured for 180 mins by flow cytometry.

Multidrug resistance-associated protein 1, sequence (P33527 whole entry): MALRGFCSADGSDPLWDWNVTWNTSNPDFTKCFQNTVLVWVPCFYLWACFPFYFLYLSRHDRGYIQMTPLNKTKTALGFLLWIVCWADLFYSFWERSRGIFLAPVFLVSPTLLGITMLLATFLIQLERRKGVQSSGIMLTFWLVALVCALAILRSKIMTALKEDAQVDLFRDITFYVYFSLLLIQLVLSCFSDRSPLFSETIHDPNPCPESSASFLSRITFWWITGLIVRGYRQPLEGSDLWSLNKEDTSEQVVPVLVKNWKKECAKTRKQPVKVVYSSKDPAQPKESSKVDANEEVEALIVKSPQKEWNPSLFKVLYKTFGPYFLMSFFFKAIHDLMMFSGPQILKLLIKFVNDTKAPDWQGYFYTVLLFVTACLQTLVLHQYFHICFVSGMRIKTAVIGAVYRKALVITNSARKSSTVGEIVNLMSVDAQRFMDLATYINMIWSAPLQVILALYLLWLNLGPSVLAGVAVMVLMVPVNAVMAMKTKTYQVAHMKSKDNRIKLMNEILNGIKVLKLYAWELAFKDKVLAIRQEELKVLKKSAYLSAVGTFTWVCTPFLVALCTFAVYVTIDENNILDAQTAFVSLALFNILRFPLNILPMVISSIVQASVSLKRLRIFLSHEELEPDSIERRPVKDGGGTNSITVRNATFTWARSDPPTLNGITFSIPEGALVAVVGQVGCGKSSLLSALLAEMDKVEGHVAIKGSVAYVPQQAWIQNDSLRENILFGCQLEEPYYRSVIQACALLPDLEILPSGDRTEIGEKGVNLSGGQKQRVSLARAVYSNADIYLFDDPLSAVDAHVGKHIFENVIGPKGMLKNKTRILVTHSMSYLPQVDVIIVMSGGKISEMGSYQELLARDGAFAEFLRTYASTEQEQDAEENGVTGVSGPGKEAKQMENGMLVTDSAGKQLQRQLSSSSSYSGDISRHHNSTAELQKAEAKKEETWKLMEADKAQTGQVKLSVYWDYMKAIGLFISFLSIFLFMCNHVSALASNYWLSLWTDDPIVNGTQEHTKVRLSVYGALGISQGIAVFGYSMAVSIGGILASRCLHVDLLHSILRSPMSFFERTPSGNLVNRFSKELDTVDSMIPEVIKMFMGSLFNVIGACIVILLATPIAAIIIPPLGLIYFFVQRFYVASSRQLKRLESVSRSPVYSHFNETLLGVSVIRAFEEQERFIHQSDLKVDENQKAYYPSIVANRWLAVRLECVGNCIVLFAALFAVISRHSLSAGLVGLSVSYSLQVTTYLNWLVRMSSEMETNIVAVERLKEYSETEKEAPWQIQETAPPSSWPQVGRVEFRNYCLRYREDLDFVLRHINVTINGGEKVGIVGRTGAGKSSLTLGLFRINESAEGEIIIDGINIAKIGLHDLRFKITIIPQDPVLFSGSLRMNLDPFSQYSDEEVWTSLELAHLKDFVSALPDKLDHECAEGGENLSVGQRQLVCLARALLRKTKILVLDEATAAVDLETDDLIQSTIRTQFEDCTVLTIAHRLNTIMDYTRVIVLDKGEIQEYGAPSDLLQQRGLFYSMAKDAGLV
ATP-dependent translocase ABCB1, sequence (P08183 whole entry): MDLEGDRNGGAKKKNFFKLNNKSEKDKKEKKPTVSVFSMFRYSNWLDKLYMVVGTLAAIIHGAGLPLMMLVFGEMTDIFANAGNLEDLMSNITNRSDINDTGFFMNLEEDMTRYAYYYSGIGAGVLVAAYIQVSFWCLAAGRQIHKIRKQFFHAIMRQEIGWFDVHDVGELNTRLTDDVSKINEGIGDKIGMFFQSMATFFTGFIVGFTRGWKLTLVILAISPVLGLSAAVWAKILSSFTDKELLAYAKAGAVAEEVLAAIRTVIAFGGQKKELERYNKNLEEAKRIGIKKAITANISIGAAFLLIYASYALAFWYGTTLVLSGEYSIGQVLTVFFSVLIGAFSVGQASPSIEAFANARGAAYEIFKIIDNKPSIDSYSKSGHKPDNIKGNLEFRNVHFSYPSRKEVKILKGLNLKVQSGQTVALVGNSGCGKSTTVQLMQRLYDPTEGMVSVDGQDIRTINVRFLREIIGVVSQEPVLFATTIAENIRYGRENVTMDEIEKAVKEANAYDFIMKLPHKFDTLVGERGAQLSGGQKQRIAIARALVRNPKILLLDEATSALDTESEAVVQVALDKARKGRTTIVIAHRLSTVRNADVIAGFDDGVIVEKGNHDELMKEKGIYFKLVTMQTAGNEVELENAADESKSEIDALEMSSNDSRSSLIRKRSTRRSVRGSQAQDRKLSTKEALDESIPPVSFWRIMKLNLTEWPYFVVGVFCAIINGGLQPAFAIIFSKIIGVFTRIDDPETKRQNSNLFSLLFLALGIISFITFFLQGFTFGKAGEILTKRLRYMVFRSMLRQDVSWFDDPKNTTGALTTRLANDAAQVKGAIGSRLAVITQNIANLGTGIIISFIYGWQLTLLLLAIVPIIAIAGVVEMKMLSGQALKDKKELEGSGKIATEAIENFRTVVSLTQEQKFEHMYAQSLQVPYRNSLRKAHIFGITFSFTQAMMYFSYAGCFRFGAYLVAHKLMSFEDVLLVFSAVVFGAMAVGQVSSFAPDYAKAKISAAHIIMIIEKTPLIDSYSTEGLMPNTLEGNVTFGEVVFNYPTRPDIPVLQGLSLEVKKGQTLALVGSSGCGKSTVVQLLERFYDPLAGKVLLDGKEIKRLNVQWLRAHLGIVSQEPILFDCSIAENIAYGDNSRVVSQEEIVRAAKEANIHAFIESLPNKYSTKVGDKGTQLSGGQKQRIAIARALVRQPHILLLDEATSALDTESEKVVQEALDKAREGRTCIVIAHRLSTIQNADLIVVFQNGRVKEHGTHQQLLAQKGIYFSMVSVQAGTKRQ
Sodium-dependent serotonin transporter (Homo sapiens), sequence (P31645 whole entry, looked up): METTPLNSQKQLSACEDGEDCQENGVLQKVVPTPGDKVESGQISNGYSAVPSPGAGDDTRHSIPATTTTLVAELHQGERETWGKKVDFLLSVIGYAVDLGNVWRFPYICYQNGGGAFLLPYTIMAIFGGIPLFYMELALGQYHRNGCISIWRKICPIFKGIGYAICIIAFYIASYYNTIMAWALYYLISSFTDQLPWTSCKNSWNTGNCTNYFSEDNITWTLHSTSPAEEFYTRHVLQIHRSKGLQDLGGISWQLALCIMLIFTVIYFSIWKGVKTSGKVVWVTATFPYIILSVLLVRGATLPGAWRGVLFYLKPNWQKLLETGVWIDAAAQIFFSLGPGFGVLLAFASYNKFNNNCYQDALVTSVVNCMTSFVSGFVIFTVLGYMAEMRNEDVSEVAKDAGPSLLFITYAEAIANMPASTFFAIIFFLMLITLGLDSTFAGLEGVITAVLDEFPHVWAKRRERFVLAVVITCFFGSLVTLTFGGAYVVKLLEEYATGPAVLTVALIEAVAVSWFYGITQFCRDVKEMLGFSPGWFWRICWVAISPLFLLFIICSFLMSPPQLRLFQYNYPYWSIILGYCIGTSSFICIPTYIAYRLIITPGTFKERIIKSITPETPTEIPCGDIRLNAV

Turning to `COc1cccc(NC(=O)Cn2nc(C(=O)Nc3cccc(OC)c3)c3ccccc32)c1`, the IC50 in test [1] was found to be 1430 nM; in test [3] it was 420 nM; in test [4] it was 20800 nM; in test [5] it was 2070 nM; in test [6], 1480 nM. Further, the inhibition result in test [2] was “inactive”.

As for `O=C(Cn1nc(C(=O)Nc2cccnc2)c2ccccc21)Nc1ccc(Cl)cc1`, the IC50 in test [1] was found to be 8000 nM; in test [3] it was 422 nM; in test [4], 60100 nM; in test [5], 6560 nM; in test [6] it was 5150 nM. Moreover, the inhibition entry in test [2] was “inactive”.

On to `COc1cccc(NC(=O)c2nn(CC(=O)Nc3ccccc3OC)c3ccccc23)c1`, for which the half-maximal inhibitory concentration (IC50) in test [1] stood at 2180 nM; in test [3], 237 nM; in test [4], 11800 nM; in test [5], 6290 nM; in test [6] it was 2190 nM. Further, the inhibition result in test [2] was “inactive”.

Regarding `O=C(Cn1nc(C(=O)Nc2ccccn2)c2ccccc21)Nc1cc(Cl)ccc1Cl`, the IC50 in test [1] turned out to be 1740 nM; in test [3] it was 1320 nM; in test [4], 50300 nM; in test [5], 1030 nM; in test [6], 492 nM. The inhibition entry in test [2] was “inactive”.
